Data: the kinase profiling compilation of Christmann-Franck et al. (2016)

What was measured:
Test in all cases: KINOMEscan competition binding
Conditions in all cases: compound 10.0 µM
AKT3 (human) = AKT3 (human) (UniProt Q9Y243)
AURKB (human) = AURKB (human) (UniProt Q96GD4)
CAMK1G (human) = CAMK1G (human) (UniProt Q96NX5)
CAMK2D (human) = CAMK2D (human) (UniProt Q13557)
CDK15 (human) = CDK15 (human) (UniProt Q96Q40)
CDK5 (human) = CDK5 (human) (UniProt Q00535)
CDKL2 (human) = CDKL2 (human) (UniProt Q92772)
CLK4 (human) = CLK4 (human) (UniProt Q9HAZ1)
CSNK1E (human) = CSNK1E (human) (UniProt P49674)
CSNK2A1 (human) = CSNK2A1 (human) (UniProt P68400)
DDR1 (human) = DDR1 (human) (UniProt Q08345)
DYRK2 (human) = DYRK2 (human) (UniProt Q92630)
EPHA6 (human) = EPHA6 (human) (UniProt Q9UF33)
FES (human) = FES (human) (UniProt P07332)
FGFR1 (human) = FGFR1 (human) (UniProt P11362)
HIPK4 (human) = HIPK4 (human) (UniProt Q8NE63)
IKBKB (human) = IKBKB (human) (UniProt O14920)
MAP3K15 (human) = MAP3K15 (human) (UniProt Q6ZN16)
MAP3K2 (human) = MAP3K2 (human) (UniProt Q9Y2U5)
Sequence of MAP3K2 (human) (Q9Y2U5 whole entry, looked up): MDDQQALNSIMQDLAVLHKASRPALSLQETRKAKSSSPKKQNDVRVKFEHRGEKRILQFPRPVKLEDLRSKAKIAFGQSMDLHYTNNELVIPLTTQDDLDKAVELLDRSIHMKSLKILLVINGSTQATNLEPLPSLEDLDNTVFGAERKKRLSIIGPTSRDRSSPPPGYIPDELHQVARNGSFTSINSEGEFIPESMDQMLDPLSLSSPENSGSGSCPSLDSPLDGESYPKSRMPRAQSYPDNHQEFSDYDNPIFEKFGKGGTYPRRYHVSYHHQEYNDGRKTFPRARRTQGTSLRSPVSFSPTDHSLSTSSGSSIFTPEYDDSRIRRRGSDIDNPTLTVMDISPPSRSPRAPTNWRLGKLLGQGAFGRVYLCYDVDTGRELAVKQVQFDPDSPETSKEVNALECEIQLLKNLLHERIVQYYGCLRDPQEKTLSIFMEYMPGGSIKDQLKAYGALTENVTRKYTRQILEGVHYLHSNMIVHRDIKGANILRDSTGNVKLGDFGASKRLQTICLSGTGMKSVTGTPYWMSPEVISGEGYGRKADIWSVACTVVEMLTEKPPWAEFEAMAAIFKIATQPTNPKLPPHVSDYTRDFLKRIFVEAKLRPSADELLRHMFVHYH

MKNK2 (human) = MKNK2 (human) (UniProt Q9HBH9)
MST4 (human) = MST4 (human) (UniProt Q9P289)
MUSK (human) = MUSK (human) (UniProt O15146)
NEK2 (human) = NEK2 (human) (UniProt P51955)
NTRK3 (human) = NTRK3 (human) (UniProt Q16288)
Sequence of NTRK3 (human) (Q16288 whole entry, looked up): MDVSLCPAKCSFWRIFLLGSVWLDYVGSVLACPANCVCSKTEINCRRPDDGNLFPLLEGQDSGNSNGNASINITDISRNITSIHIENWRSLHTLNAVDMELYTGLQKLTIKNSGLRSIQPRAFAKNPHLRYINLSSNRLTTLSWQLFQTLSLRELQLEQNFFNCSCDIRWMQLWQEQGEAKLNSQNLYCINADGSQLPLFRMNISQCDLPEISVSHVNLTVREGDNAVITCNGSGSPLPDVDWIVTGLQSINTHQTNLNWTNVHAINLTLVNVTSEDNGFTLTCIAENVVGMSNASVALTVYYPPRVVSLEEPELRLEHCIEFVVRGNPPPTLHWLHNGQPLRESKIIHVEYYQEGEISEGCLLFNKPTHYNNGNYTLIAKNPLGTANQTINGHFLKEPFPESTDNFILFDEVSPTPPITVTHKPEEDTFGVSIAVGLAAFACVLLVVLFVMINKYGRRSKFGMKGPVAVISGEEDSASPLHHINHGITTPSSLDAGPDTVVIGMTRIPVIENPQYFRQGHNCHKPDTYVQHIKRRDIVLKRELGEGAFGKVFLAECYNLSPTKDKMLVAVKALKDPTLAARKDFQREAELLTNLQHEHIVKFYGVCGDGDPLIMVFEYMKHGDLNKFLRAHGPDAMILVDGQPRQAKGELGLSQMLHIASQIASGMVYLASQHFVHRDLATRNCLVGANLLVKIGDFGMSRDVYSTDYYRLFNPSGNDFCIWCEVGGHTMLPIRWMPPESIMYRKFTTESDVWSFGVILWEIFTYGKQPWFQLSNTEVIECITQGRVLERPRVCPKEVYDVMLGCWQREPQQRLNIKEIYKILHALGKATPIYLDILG

NUAK2 (human) = NUAK2 (human) (UniProt Q9H093)
PAK1 (human) = PAK1 (human) (UniProt Q13153)
PIK3C2B (human) = PIK3C2B (human) (UniProt O00750)
[1] = tested on: PIK3CA (human), P42336 [M1043I]
PIK3CB (human) = PIK3CB (human) (UniProt P42338)
PKN1 (human) = PKN1 (human) (UniProt Q16512)
Sequence of PKN1 (human) (Q16512 whole entry, looked up): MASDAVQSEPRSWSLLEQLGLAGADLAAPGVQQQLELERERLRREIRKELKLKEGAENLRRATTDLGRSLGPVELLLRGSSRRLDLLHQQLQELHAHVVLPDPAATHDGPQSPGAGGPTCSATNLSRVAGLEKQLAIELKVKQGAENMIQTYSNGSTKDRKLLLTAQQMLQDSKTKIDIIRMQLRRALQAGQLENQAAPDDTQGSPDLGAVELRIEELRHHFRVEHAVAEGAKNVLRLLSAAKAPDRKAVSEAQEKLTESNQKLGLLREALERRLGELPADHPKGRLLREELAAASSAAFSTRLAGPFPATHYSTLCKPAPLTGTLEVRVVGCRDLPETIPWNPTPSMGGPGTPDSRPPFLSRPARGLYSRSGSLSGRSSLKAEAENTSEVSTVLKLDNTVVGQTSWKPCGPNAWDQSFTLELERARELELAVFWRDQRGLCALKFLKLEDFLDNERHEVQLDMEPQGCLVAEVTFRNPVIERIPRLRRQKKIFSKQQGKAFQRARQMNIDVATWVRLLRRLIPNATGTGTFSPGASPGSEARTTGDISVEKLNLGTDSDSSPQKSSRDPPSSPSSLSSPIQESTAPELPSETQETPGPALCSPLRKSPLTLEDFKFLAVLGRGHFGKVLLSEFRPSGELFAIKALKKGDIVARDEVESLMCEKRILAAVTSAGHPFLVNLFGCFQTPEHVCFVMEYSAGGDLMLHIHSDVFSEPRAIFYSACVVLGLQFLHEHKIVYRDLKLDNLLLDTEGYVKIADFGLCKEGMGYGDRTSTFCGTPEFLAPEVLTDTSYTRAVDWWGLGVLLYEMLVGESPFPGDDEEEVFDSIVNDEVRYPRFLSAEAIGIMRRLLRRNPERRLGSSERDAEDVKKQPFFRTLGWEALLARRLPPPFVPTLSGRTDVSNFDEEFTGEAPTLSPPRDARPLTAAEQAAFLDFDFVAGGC

PKN2 (human) = PKN2 (human) (UniProt Q16513)
PRKG1 (human) = PRKG1 (human) (UniProt Q13976)
Sequence of PRKG1 (human) (Q13976 whole entry, looked up): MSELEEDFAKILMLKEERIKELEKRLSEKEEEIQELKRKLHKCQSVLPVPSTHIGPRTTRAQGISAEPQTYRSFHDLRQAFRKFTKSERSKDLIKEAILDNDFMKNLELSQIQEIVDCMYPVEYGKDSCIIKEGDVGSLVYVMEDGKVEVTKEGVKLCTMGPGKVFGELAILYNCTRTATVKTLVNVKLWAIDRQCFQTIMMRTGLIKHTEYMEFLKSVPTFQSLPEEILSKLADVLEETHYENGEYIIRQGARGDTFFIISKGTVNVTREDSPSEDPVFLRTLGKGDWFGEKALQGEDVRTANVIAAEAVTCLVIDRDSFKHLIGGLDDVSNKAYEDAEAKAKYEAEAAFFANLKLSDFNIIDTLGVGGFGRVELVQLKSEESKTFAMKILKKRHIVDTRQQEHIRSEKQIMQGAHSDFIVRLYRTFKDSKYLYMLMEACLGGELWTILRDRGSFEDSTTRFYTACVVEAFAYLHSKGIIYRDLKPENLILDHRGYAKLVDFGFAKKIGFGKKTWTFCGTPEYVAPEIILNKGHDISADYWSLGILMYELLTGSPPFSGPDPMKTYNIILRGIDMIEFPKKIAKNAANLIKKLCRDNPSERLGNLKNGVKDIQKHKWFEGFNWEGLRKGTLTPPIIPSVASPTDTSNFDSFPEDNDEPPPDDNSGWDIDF

PTK2B (human) = PTK2B (human) (UniProt Q14289)
RET (human) = RET (human) (UniProt P07949)
STK24 (human) = STK24 (human) (UniProt Q9Y6E0)
STK3 (human) = STK3 (human) (UniProt Q13188)
Sequence of STK3 (human) (Q13188 whole entry, looked up): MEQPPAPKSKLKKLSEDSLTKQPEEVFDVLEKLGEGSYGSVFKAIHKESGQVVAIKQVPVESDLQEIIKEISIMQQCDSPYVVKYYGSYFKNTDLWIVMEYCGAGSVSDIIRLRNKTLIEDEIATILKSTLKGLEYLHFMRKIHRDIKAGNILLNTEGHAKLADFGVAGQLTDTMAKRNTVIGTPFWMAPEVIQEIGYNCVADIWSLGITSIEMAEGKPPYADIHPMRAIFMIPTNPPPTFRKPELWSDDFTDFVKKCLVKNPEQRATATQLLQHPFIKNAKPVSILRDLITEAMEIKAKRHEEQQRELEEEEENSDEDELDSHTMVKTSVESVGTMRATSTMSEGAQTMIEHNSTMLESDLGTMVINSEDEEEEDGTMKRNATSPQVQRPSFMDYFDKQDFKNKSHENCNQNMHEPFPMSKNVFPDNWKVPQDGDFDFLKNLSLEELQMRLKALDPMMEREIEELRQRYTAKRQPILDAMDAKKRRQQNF

STK32B (human) = STK32B (human) (UniProt Q9NY57)
TAOK3 (human) = TAOK3 (human) (UniProt Q9H2K8)
TNK1 (human) = TNK1 (human) (UniProt Q13470)
TSSK1B (human) = TSSK1B (human) (UniProt Q9BXA7)
Sequence of TSSK1B (human) (Q9BXA7 whole entry, looked up): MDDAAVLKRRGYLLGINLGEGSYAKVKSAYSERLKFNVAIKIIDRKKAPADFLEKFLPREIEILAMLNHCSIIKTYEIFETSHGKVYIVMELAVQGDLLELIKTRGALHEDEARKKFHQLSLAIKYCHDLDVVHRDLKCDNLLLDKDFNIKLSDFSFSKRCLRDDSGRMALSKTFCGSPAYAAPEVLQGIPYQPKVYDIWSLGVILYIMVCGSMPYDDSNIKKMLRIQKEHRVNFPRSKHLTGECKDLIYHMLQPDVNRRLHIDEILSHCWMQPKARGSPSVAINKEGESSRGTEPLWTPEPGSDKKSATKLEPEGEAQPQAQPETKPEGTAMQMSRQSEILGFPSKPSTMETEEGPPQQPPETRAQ

TTK (human) = TTK (human) (UniProt P33981)
ULK2 (human) = ULK2 (human) (UniProt Q8IYT8)

Sequence of CDK5 (human) (Q00535 whole entry, looked up): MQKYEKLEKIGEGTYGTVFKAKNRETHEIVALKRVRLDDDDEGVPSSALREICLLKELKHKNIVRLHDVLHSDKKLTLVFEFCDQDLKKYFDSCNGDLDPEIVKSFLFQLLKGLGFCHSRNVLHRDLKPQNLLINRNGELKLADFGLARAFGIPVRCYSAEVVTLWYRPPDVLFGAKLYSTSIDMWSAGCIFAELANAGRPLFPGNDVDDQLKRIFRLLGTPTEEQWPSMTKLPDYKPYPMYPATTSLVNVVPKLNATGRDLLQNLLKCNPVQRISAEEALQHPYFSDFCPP
Sequence of CDK15 (human) (Q96Q40 whole entry, looked up): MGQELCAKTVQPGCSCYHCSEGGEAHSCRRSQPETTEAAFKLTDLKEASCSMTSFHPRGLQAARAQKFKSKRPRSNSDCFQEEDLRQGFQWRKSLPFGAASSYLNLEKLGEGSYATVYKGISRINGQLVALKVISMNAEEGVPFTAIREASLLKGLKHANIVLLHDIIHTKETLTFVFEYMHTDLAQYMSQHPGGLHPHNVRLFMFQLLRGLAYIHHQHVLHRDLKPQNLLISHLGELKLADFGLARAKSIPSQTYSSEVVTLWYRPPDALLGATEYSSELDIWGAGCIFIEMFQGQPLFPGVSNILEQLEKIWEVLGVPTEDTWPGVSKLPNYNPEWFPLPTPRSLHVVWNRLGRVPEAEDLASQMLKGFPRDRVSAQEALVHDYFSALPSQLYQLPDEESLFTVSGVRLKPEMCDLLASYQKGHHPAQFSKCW
Sequence of AURKB (human) (Q96GD4 whole entry, looked up): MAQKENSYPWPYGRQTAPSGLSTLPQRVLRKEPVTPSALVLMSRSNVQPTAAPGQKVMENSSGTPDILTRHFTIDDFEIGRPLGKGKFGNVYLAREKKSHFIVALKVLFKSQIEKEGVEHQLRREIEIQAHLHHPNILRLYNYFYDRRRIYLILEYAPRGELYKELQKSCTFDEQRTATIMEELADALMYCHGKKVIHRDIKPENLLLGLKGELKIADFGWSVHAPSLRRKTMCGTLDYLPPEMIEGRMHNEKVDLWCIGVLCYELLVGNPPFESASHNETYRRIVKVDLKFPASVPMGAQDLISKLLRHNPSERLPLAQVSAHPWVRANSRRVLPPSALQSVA

COc1ccc(CNC(=O)Nc2ncc([N+](=O)[O-])s2)cc1
kinase still bound, per cent of control (AKT3 (human)): 92% | kinase still bound, per cent of control (AURKB (human)): 97% | kinase still bound, per cent of control (CAMK1G (human)): 100% | kinase still bound, per cent of control (CAMK2D (human)): 100% | kinase still bound, per cent of control (CDK15 (human)): 100% | kinase still bound, per cent of control (CDK5 (human)): 72% | kinase still bound, per cent of control (CDKL2 (human)): 40% | kinase still bound, per cent of control (CLK4 (human)): 87% | kinase still bound, per cent of control (CSNK1E (human)): 87% | kinase still bound, per cent of control (CSNK2A1 (human)): 100% | kinase still bound, per cent of control (DDR1 (human)): 100% | kinase still bound, per cent of control (DYRK2 (human)): 68% | kinase still bound, per cent of control (EPHA6 (human)): 100% | kinase still bound, per cent of control (FES (human)): 99% | kinase still bound, per cent of control (FGFR1 (human)): 100% | kinase still bound, per cent of control (HIPK4 (human)): 49% | kinase still bound, per cent of control (IKBKB (human)): 100% | kinase still bound, per cent of control (MAP3K15 (human)): 100% | kinase still bound, per cent of control (MAP3K2 (human)): 96% | kinase still bound, per cent of control (MKNK2 (human)): 100% | kinase still bound, per cent of control (MST4 (human)): 99% | kinase still bound, per cent of control (MUSK (human)): 100% | kinase still bound, per cent of control (NEK2 (human)): 90% | kinase still bound, per cent of control (NTRK3 (human)): 85% | kinase still bound, per cent of control (NUAK2 (human)): 93% | kinase still bound, per cent of control (PAK1 (human)): 94% | kinase still bound, per cent of control (PIK3C2B (human)): 94% | kinase still bound, per cent of control [1]: 100% | kinase still bound, per cent of control (PIK3CB (human)): 100% | kinase still bound, per cent of control (PKN1 (human)): 100% | kinase still bound, per cent of control (PKN2 (human)): 78% | kinase still bound, per cent of control (PRKG1 (human)): 97% | kinase still bound, per cent of control (PTK2B (human)): 100% | kinase still bound, per cent of control (RET (human)): 100% | kinase still bound, per cent of control (STK24 (human)): 84% | kinase still bound, per cent of control (STK3 (human)): 3.4% | kinase still bound, per cent of control (STK32B (human)): 100% | kinase still bound, per cent of control (TAOK3 (human)): 54% | kinase still bound, per cent of control (TNK1 (human)): 100% | kinase still bound, per cent of control (TSSK1B (human)): 91% | kinase still bound, per cent of control (TTK (human)): 100% | kinase still bound, per cent of control (ULK2 (human)): 100%

Cn1cc(C2=C(c3ccc(Cl)cc3Cl)C(=O)NC2=O)c2ccccc21
kinase still bound, per cent of control (AKT3 (human)): 100% | kinase still bound, per cent of control (AURKB (human)): 96% | kinase still bound, per cent of control (CAMK1G (human)): 70% | kinase still bound, per cent of control (CAMK2D (human)): 56% | kinase still bound, per cent of control (CDK15 (human)): 66% | kinase still bound, per cent of control (CDK5 (human)): 47% | kinase still bound, per cent of control (CDKL2 (human)): 87% | kinase still bound, per cent of control (CLK4 (human)): 7.8% | kinase still bound, per cent of control (CSNK1E (human)): 49% | kinase still bound, per cent of control (CSNK2A1 (human)): 35% | kinase still bound, per cent of control (DDR1 (human)): 100% | kinase still bound, per cent of control (DYRK2 (human)): 83% | kinase still bound, per cent of control (EPHA6 (human)): 100% | kinase still bound, per cent of control (FES (human)): 100% | kinase still bound, per cent of control (FGFR1 (human)): 100% | kinase still bound, per cent of control (HIPK4 (human)): 14% | kinase still bound, per cent of control (IKBKB (human)): 83% | kinase still bound, per cent of control (MAP3K15 (human)): 100% | kinase still bound, per cent of control (MAP3K2 (human)): 100% | kinase still bound, per cent of control (MKNK2 (human)): 89% | kinase still bound, per cent of control (MST4 (human)): 100% | kinase still bound, per cent of control (MUSK (human)): 100% | kinase still bound, per cent of control (NEK2 (human)): 85% | kinase still bound, per cent of control (NTRK3 (human)): 62% | kinase still bound, per cent of control (NUAK2 (human)): 100% | kinase still bound, per cent of control (PAK1 (human)): 80% | kinase still bound, per cent of control (PIK3C2B (human)): 100% | kinase still bound, per cent of control [1]: 100% | kinase still bound, per cent of control (PIK3CB (human)): 85% | kinase still bound, per cent of control (PKN1 (human)): 73% | kinase still bound, per cent of control (PKN2 (human)): 100% | kinase still bound, per cent of control (PRKG1 (human)): 61% | kinase still bound, per cent of control (PTK2B (human)): 94% | kinase still bound, per cent of control (RET (human)): 100% | kinase still bound, per cent of control (STK24 (human)): 69% | kinase still bound, per cent of control (STK3 (human)): 9.9% | kinase still bound, per cent of control (STK32B (human)): 100% | kinase still bound, per cent of control (TAOK3 (human)): 92% | kinase still bound, per cent of control (TNK1 (human)): 88% | kinase still bound, per cent of control (TSSK1B (human)): 100% | kinase still bound, per cent of control (TTK (human)): 83% | kinase still bound, per cent of control (ULK2 (human)): 96%
